Test results taken from ChEMBL document CHEMBL6120999, “Total Synthesis and Anti-Inflammatory Activity of Tectoridin and Related Isoflavone Glucosides” (J Nat Prod, 2025).
The source made the active and inactive calls. The calls are words filed in the database; no cut-off is given here.

Tests used:
RAW264.7 [1] = experiment: Cytotoxicity against mouse RAW264.7 cells assessed as effect on cell viability at 50 uM measured after 24 hrs by CCK-8 assay; format: toxicity, cell-based; settings: raw264.7, 24 h
RAW264.7 [2] = experiment: Anti-inflammatory activity in mouse RAW264.7 cells assessed as inhibition of LPS-induced NO production preincubated for 1 hr followed by LPS stimulation for 24 hrs by Griess reagent assay; format: functional, cell-based; settings: for Activity: time 25.0 hrs
RAW264.7 [3] = experiment: Anti-inflammatory activity in mouse RAW264.7 cells assessed as reduction in LPS-induced NO production at 50 uM preincubated for 1 hr followed by LPS stimulation for 24 hrs by Griess reagent assay relative to control; format: functional; design: scale not given: the % may be the effect or the level left; settings: time 25 hrs
RAW264.7 [4] = experiment: Anti-inflammatory activity against LPS-induced mouse RAW264.7 cells assessed as decrease in TNF-alpha gene expression by RT-qPCR analysis; format: functional, cell-based; settings: dose 10-50 µM
RAW264.7 [5] = experiment: Anti-inflammatory activity against LPS-induced mouse RAW264.7 cells assessed as reduction in TNF-alpha gene expression at 50 uM treated for 24 hrs by RT-qPCR analysis relative to control; format: functional; design: scale not given: the % may be the effect or the level left
RAW264.7 [6] = experiment: Anti-inflammatory activity against LPS-induced mouse RAW264.7 cells assessed as decrease in IL-6 gene expression at 50 uM treated for 24 hrs by RT-qPCR analysis relative to control; format: functional; design: scale not given: the % may be the effect or the level left
RAW264.7 [7] = experiment: Anti-inflammatory activity against LPS-induced mouse RAW264.7 cells assessed as reduction in IL-1beta gene expression at 50 uM treated for 24 hrs by RT-qPCR analysis relative to control; format: functional; design: scale not given: the % may be the effect or the level left
RAW264.7 [8] = experiment: Anti-inflammatory activity against LPS-induced mouse RAW264.7 cells assessed as decrease in IL-6 gene expression by RT-qPCR analysis; format: functional, cell-based; settings: dose 10-50 µM
RAW264.7 [9] = experiment: Anti-inflammatory activity against LPS-induced mouse RAW264.7 cells assessed as decrease in IL-1beta gene expression by RT-qPCR analysis; format: functional, cell-based; settings: dose 10-50 µM
RAW264.7 [10] = experiment: Anti-inflammatory activity against LPS-induced mouse RAW264.7 cells assessed as inhibition in TNF-alpha release at 50 uM by ELISA; format: functional, cell-based
RAW264.7 [11] = experiment: Anti-inflammatory activity against LPS-induced mouse RAW264.7 cells assessed as inhibition in IL-6 release at 50 uM by ELISA; format: functional, cell-based
RAW264.7 [12] = experiment: Anti-inflammatory activity in mouse RAW264.7 cells assessed as inhibition of LPS-induced NO production at 25 to 50 uM preincubated for 1 hr followed by LPS stimulation for 24 hrs by Griess reagent assay; format: functional, cell-based; settings: dose 25-50 µM, time 25.0 hrs
RAW264.7 [13] = experiment: Anti-inflammatory activity against LPS-induced mouse RAW264.7 cells assessed as effect on TNF-alpha gene expression at 50 uM treated for 24 hrs by RT-qPCR analysis; format: functional, cell-based
RAW264.7 [14] = experiment: Anti-inflammatory activity against LPS-induced mouse RAW264.7 cells assessed as change in IL-6 gene expression at 50 uM treated for 24 hrs by RT-qPCR analysis; format: functional, cell-based
RAW264.7 [15] = experiment: Anti-inflammatory activity against LPS-induced mouse RAW264.7 cells assessed as reduction in IL-1beta gene expression at 50 uM treated for 24 hrs by RT-qPCR analysis; format: functional, cell-based

Compound	Activity (RAW264.7 [1])	IC50 (RAW264.7 [2]) [µM]	Activity (RAW264.7 [2])	Activity (RAW264.7 [3]) [%]	Activity (RAW264.7 [4])	Activity (RAW264.7 [5]) [%]	Activity (RAW264.7 [6]) [%]	Activity (RAW264.7 [7]) [%]	Activity (RAW264.7 [8])	Activity (RAW264.7 [9])	Activity (RAW264.7 [10])	Activity (RAW264.7 [11])	Activity (RAW264.7 [12])	Activity (RAW264.7 [13])	Activity (RAW264.7 [14])	Activity (RAW264.7 [15])
COc1c(O)cc(O)c2c(=O)c(-c3ccc(O)cc3)coc12 [PSI-TECTORIGENIN]	Non-toxic	26.8	Dose-dependent-effect	~100	Dose-dependent-effect	46.3	56	61	Dose-dependent-effect	Dose-dependent-effect	Active	Active	–	–	–	–
COc1cc(C(=O)OC[C@H]2O[C@@H](Oc3cc4occ(-c5ccc(O)cc5)c(=O)c4c(O)c3OC)[C@H](O)[C@@H](O)[C@@H]2O)ccc1O	Non-toxic	–	–	–	–	–	–	4.1	–	–	–	–	inactive	Not active; Increase In Tnf-Alpha Gene Expression Observed	Not active; Increase In Il-6 Gene Expression Observed	–
COc1c(O[C@@H]2O[C@H](CO)[C@@H](O)[C@H](O)[C@H]2O)cc2occ(-c3ccc(O)cc3)c(=O)c2c1O [TECTORIDIN]	Non-toxic	–	–	–	–	–	–	31.2	–	–	–	–	inactive	inactive	inactive	–
COc1c(O)cc2occ(-c3ccc(O)cc3)c(=O)c2c1O [TECTORIGENIN]	Non-toxic	51.7	Dose-dependent-effect	48.4	Dose-dependent-effect	40	87.8	90.8	Dose-dependent-effect	Dose-dependent-effect	Active	Active	–	–	–	–
COc1c(O[C@@H]2O[C@H](CO)[C@@H](O)[C@H](O)[C@H]2O)cc2occ(-c3ccc(O[C@@H]4O[C@H](CO)[C@@H](O)[C@H](O)[C@H]4O)cc3)c(=O)c2c1O	Non-toxic	–	–	–	–	–	–	–	–	–	–	–	inactive	inactive	inactive	Not active; Increase In Il-1Beta Gene Expression Observed
COc1c(O[C@@H]2O[C@H](CO)[C@@H](O)[C@H](O)[C@H]2O)cc(O)c2c(=O)c(-c3ccc(O)cc3)coc12	Non-toxic	–	–	–	–	–	–	14.4	–	–	–	–	inactive	inactive	inactive	–
